Reference: patent publication EP3030673B1, “SCREENING AND IDENTIFICATION OF RESISTANT MARKERS IN CRUSTACEAN” (priority 2013, dated 2015)
Like-named read-outs stand apart in the source and are kept apart here.

Tests used:
[1] = tested on: LsVikna (pyrethroid resistant strain); assay: Deltamethrin bioassay on adult male sea lice, pyrethroid resistant strain; assay type: in vivo, Lepeophtheirus salmonis
From the text: In order to investigate the inheritance and mechanism of pyrethroid resistance in L. salmonis, two strains (sensitive and resistant) and their reciprocal hybrids were used for a two-generation breeding experiment complimented with bioassays to measure tolerance (Fig. 2). The pyrethroid sensitive strain (hereon also referred to as LsGulen) was collected in June 2006 from newly slaughtered rainbow trout from Gulen in western Norway. The pyrethroid resistant strain (hereon also referred to as LsVikna) was collected in February 2009 from a salmon farm in Vikna, North Trøndelag, Norway. The resistant strain was collected on the basis of suspected reduced sensitivity to pyrethroids due to the fact that there had been reported a treatment failure on the farm from which it was collected. This was subsequently confirmed in bioassays with LsGulen as sensitive control.
Each strain, including both types of hybrids obtained in example 1 were quantified in their tolerance of deltamethrin at sampling points 1 and 2 representing the F1 and F2 generations for the hybrids (Fig. 1 and 2). Bioassays were performed according to standard guidelines (SEARCH Consortium, 2006, Sea lice resistance to chemotherapeutants: A handbook in resistance management. 2 ed.), with minor modifications. Only adult male lice were used for the bioassay, which after sampling (at 55 or 56 dpi) had been incubated overnight in running seawater (ca. 10 °C). The 30 min exposure to the prepared deltamethrin concentration was also carried out at ca. 10 °C, and higher concentrations than those described in the given protocol were included (Table S3). After exposure to deltamethrin, the lice were kept in running seawater (24 h at ca. 10 °C) until evaluation of the bioassays. […] EC50 values were calculated using probit analysis (PoloPlus 2.0; LeOra Software, CA, USA). Table 3a. […]

[2] = tested on: LsHybridG (LsGulen as its maternal strain); assay type: in vivo, Lepeophtheirus salmonis
Description: In order to hybridise the lice strains for the inheritance experiment, the parental strains were first synchronised and multiplied up in numbers by simultaneously infecting 20 Atlantic salmon with copepods. In total, 1000 copepods per strain were added. At 32 days post infection (dpi), all salmon were anaesthetised and approximately half of the lice were carefully removed using tweezers. At this stage, lice were predominantly preadult 2 females and adult males, with a few percent adult females and preadult 2 males. The lice removed from the salmon were sexed, and then used to create the reciprocal hybrid strains. This was achieved by combining 4-5 females from the resistant strain and 4-5 males from the sensitive strain (LsHybridV), and 4-5 females from the sensitive strain and 4-5 males from the resistant strain (LsHybridG). Only preadult 2 females were used. These combinations were each placed into 2 replicate tanks in order to make two hybrid strains (4 groups and 8 tanks at this stage). At 67-68 dpi, all lice were removed from the four strains. Egg strings were removed from adult females and incubated in containers containing a single strain each. The number of adult lice, and harvested egg strings varied, but all were incubated (Table 2). Table 2. Number of egg strings collected from each strain. Egg strings from replicate tanks were pooled. Most egg strings were part of a pair.
The subsequent generation (F2, Fig. 2) were both produced using the general procedure described above, although the hybrid strains were only crossed back to themselves to create multiple generation-hybrids. Collection of egg strings, which marked the establishment of a new generation, was done at 55 and 56 dpi respectively. Salmon that hosted the previous generation were re-used for reinfection with the next generation, but hosted only the same experimental strain.
Each strain, including both types of hybrids obtained in example 1 were quantified in their tolerance of deltamethrin at sampling points 1 and 2 representing the F1 and F2 generations for the hybrids (Fig. 1 and 2). Bioassays were performed according to standard guidelines (SEARCH Consortium, 2006, Sea lice resistance to chemotherapeutants: A handbook in resistance management. 2 ed.), with minor modifications. Only adult male lice were used for the bioassay, which after sampling (at 55 or 56 dpi) had been incubated overnight in running seawater (ca. 10 °C). The 30 min exposure to the prepared deltamethrin concentration was also carried out at ca. 10 °C, and higher concentrations than those described in the given protocol were included (Table S3). After exposure to deltamethrin, the lice were kept in running seawater (24 h at ca. 10 °C) until evaluation of the bioassays. […] EC50 values were calculated using probit analysis (PoloPlus 2.0; LeOra Software, CA, USA). Table 3a. Deltamethrin bioassays performed on sampling set 1

## CC1(C)[C@H](C(=O)O[C@H](C#N)c2cccc(Oc3ccccc3)c2)[C@@H]1C=C(Br)Br [Deltamethrin, deltamethrin]
[1]; above 1 ppb, resistant strain
  survival of the bioassay: survived the bioassay
[1]; sampling set 1, F6, fish tank 05, dose 0.1 ppb
  % Inactive: 0%
[1]; sampling set 1, F6, fish tank 05, dose 0.3 ppb
  % Inactive: 0%
[1]; sampling set 1, F6, fish tank 05, dose 1 ppb
  % Inactive: 12%
[1]; sampling set 1, F6, fish tank 05, dose 3 ppb
  % Inactive: 27%
[1]; sampling set 1, F6, fish tank 05, dose 6 ppb
  % Inactive: 35%
[1]; sampling set 1, F6, fish tank 05, dose 12 ppb
  % Inactive: 41%
[1]; sampling set 1, F6, fish tank 09, dose 0.1 ppb
  % Inactive: 4%
[1]; sampling set 1, F6, fish tank 09, dose 0.3 ppb
  % Inactive: 0%
[1]; sampling set 1, F6, fish tank 09, dose 1 ppb
  % Inactive: 10%
[1]; sampling set 1, F6, fish tank 09, dose 3 ppb
  % Inactive: 19%
[1]; sampling set 1, F6, fish tank 09, dose 6 ppb
  % Inactive: 23%
[1]; sampling set 1, F6, fish tank 09, dose 12 ppb
  % Inactive: 28%
[1]; sampling set 2, F7, fish tank 08, dose 0.1 ppb
  % Inactive: 0%
[1]; sampling set 2, F7, fish tank 08, dose 0.3 ppb
  % Inactive: 0%
[1]; sampling set 2, F7, fish tank 08, dose 0.5 ppb
  % Inactive: 0%
[1]; sampling set 2, F7, fish tank 08, dose 1 ppb
  % Inactive: 0%
[1]; sampling set 2, F7, fish tank 08, dose 3 ppb
  % Inactive: 6%
[1]; sampling set 2, F7, fish tank 08, dose 6 ppb
  % Inactive: 18%
[1]; sampling set 2, F7, fish tank 08, dose 12 ppb
  % Inactive: 0%
[1]; sampling set 2, F7, fish tank 08, dose 20 ppb
  % Inactive: 39%
[2]; above 1 ppb, maternal hybrid strain of the sensitive strain
  mortality: 100%
[2]; sampling set 1, F1, fish tank 01, dose 0.1 ppb
  % Inactive: 0%
[2]; sampling set 1, F1, fish tank 01, dose 0.3 ppb
  % Inactive: 21%
[2]; sampling set 1, F1, fish tank 01, dose 1 ppb
  % Inactive: 100%
[2]; sampling set 1, F1, fish tank 01, dose 3 ppb
  % Inactive: 100%
[2]; sampling set 1, F1, fish tank 01, dose 6 ppb
  % Inactive: 100%
[2]; sampling set 1, F1, fish tank 01, dose 12 ppb
  % Inactive: 100%
[2]; sampling set 1, F1, fish tank 07, dose 0.1 ppb
  % Inactive: 18%
[2]; sampling set 1, F1, fish tank 07, dose 0.3 ppb
  % Inactive: 32%
[2]; sampling set 1, F1, fish tank 07, dose 1 ppb
  % Inactive: 100%
[2]; sampling set 1, F1, fish tank 07, dose 3 ppb
  % Inactive: 100%
[2]; sampling set 1, F1, fish tank 07, dose 6 ppb
  % Inactive: 100%
[2]; sampling set 1, F1, fish tank 07, dose 12 ppb
  % Inactive: 100%
[2]; sampling set 2, F2, fish tank 07, dose 0.1 ppb
  % Inactive: 0%
[2]; sampling set 2, F2, fish tank 07, dose 0.3 ppb
  % Inactive: 50%
[2]; sampling set 2, F2, fish tank 07, dose 0.5 ppb
  % Inactive: 85%
[2]; sampling set 2, F2, fish tank 07, dose 1 ppb
  % Inactive: 90%
[2]; sampling set 2, F2, fish tank 07, dose 3 ppb
  % Inactive: 100%
[2]; sampling set 2, F2, fish tank 07, dose 6 ppb
  % Inactive: 100%
[2]; sampling set 2, F2, fish tank 07, dose 12 ppb
  % Inactive: 100%
[2]; sampling set 2, F2, fish tank 07, dose 20 ppb
  % Inactive: 100%
[2]; sampling set 2, F2, fish tank 10, dose 0.1 ppb
  % Inactive: 5%
[2]; sampling set 2, F2, fish tank 10, dose 0.3 ppb
  % Inactive: 43%
[2]; sampling set 2, F2, fish tank 10, dose 0.5 ppb
  % Inactive: 72%
[2]; sampling set 2, F2, fish tank 10, dose 1 ppb
  % Inactive: 100%
[2]; sampling set 2, F2, fish tank 10, dose 3 ppb
  % Inactive: 100%
[2]; sampling set 2, F2, fish tank 10, dose 6 ppb
  % Inactive: 100%
[2]; sampling set 2, F2, fish tank 10, dose 12 ppb
  % Inactive: 100%
[2]; sampling set 2, F2, fish tank 10, dose 20 ppb
  % Inactive: 100%
